Assay results taken from patent publication US7851487B2, “Use of tetrahydropyridines in the treatment of central nervous system disorders” (The Research Foundation of State University of New York, priority 2006, dated 2010).

How the values were obtained:
[1] = biological target: Dopamine D3 (Homo sapiens, UniProt P35462); assay: Radioligand binding, Dopamine D3; conditions: Dopamine D3, 10 μM; read-out: Percentage Inhibition
Experimental: (§1) The assays utilized human neuroreceptors and were performed under the experimental parameters set forth in Table 2 using standard techniques.
(§2) For Table 3, IC50 values were determined by non-linear, least squares regression analysis using Data Analysis Toolbox™ (MDL Information Systems, San Leandro, Calif., USA). Inhibition constants (KI) were calculated using the equation of Cheng and Prusoff (Cheng, Y., et al. Biochem. Pharmacol. 22:3099-3108, 1973) using the observed IC50 of the tested compound, the concentration of radioligand employed in the assay, and the values for the KD of the ligand. The Hill coefficient (nH), defining the slope of the competitive binding curve, was calculated using the Data Analysis Toolbox™. Biochemical assay results are presented as the percent inhibition of specific binding or activity unless indicated otherwise. The experiments summarized in Table 3 utilized human dopamine D1, D2 s, D21, D3, D4.2, D4.4, serotonin 5HT1A, 5HT2A, 5HT2C, 5HT6, 5HT7, dopamine transporter (DAT), serotonin transporter (SERT) and the norepinephrine transporter (NET), as indicated in Table 3.

[2] = biological target: T1, Serotonin 5HT2C (Homo sapiens, UniProt P28335); assay: Radioligand binding, Serotonin 5HT2C ([3H]Mesulergine)
T1 construct: host or cells: CHO-K1 cells
T1 sequence (P28335 33-458): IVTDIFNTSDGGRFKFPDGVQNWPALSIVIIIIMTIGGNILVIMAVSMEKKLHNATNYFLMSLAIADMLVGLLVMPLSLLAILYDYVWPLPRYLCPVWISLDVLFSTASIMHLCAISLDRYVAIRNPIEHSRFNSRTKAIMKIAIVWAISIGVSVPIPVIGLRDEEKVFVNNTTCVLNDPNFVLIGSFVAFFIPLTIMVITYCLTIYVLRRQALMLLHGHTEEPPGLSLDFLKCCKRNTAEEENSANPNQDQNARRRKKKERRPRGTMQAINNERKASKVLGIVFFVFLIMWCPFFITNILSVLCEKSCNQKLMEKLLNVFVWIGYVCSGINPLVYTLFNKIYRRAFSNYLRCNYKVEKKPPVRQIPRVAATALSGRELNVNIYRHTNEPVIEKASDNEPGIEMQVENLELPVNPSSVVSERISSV
Experimental: as §1, §2

[3] = biological target: T2, Serotonin transporter (SERT) (Homo sapiens, UniProt P31645); assay: Radioligand binding, Serotonin transporter (SERT) ([3H]Paroxetine)
T2 construct: host or cells: HEK-293 cells
Experimental: as §1, §2

[4] = test system: ckr mouse; assay: Motor activity in chakragati (ckr) mice; assay type: in vivo; conditions: 10 mg/kg intraperitoneal, 20 minutes after injection, monitored 15 minutes
Experimental: The mouse also presents lateral ventricular enlargement, which may mirror neuropathological observations in shizophrenia. […] We have further validated this model by testing risperidone, clozapine, haloperidol and pimozide in the ckr mouse. The behavioral output was assayed by measuring the rate of hyperactivity and circling after administration.
A stock solution of compound 2 was dissolved in DMSO, and then diluted to 10 mg/10 ml with distilled water such that the final concentration of DMSO was 0.5%. Each animal received 10 mg/kg of the test drug in a volume of 0.1 ml per 10 g. Additional drugs were tested in parallel in a similar manner.
Twenty ckr mice (male and female, 3 months old) were randomly assigned to receive the test drug (compound 2) or 0.5% DMSO vehicle. The drug was tested in 5 mice. Each treatment was separated by a minimum washout period of 3 days. On the day of testing, mice were brought into the behavioral test room and allowed to acclimatize for at least 1 hour. They then received intraperitoneal injections of the 0.1 ml/10 g (10 mg/kg) of the test drug solution or vehicle. They were returned to their cage and 20 minutes later they were placed in a 190 mm diameter, 300 mm deep circular recording chamber. […] The mice were monitored with an overhead video camera for 15 minutes. […] The total distance moved, the velocity of movement, and the time spent moving were calculated. […]

T2 sequence (P31645 whole entry): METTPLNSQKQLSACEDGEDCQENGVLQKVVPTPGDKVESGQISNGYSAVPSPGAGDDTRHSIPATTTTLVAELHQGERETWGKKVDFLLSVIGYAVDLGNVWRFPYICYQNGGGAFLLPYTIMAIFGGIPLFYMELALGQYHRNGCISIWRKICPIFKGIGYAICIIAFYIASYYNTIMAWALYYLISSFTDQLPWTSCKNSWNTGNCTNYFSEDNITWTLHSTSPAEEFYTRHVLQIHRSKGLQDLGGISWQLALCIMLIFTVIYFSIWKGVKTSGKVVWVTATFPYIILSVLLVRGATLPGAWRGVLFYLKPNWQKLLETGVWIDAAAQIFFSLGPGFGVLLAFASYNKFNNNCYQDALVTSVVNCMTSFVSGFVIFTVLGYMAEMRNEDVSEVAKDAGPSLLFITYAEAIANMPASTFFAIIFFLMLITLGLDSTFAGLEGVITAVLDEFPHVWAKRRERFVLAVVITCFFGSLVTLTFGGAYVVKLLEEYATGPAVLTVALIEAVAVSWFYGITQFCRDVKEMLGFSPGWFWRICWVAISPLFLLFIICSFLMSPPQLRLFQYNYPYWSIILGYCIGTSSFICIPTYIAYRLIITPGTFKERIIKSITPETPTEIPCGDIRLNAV
Dopamine D3, sequence (P35462 whole entry): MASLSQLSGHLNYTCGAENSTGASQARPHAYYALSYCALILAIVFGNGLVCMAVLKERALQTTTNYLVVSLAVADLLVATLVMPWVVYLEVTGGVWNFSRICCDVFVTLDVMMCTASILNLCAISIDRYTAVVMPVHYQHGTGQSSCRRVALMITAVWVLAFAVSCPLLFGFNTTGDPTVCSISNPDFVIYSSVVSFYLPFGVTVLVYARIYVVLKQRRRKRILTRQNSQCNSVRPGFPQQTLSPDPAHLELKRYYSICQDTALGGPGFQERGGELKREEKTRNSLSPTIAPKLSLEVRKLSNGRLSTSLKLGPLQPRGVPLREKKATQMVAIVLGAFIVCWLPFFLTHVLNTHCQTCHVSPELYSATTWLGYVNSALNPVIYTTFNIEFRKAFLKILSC

## COC(=O)[C@@H](c1ccc(-c2ccccc2)cc1)[C@H]1C=CCCN1 [Compound 2]
[1]
  inhibition at 10 µM: 15%
[2]
  IC50: 13.4 µM
  Ki: 7.03 µM
[2]; Serotonin 5HT2C, 10 μM, read-out: Percentage Inhibition
  inhibition at 10 µM: 52%
[2]; Serotonin 5HT2C, 30 μM, read-out: Percentage Inhibition
  inhibition at 30 µM: 70%
[2]; Serotonin 5HT2C, Hill coefficient
  nH: 1.12
[3]
  IC50: 14.3 µM
  Ki: 2.33 µM
[3]; Serotonin transporter (SERT), 10 μM, read-out: Percentage Inhibition
  inhibition at 10 µM: 48%
[3]; Serotonin transporter (SERT), 30 μM, read-out: Percentage Inhibition
  inhibition at 30 µM: 70%
[3]; Serotonin transporter (SERT), Hill coefficient
  nH: 1.24
[4]
  time spent moving: significantly decreased the time spent moving
  velocity of movement: trend towards decreased velocity
